Earlier results as cited in publication PMC4522190 (ChemistryOpen, 2015).

Test system: proteases
Conditions: statement without data

cyclo-RRRWFW (head to tail) [c-WFW]
metabolic stability against proteases (in words): good metabolic stability against proteases
